Laboratory results reported in patent US20250345329A1, “HETEROARYL DERIVATIVE COMPOUND AND USES THEREOF” (VORONOI, INC., priority 2022, published 2025).

Legend:
[1] = target: T1, human EGFR (d746-750/T790M/C797S) (Homo sapiens, UniProt P00533, C797S/DEL746-750/T790M); assay: EGFR C797S enzyme inhibition activity (ADP-Glo kinase assay); assay type: biochemical; settings: purified enzyme 3 ng, ATP 5 μM, 25° C., 1 hour, luminescence; read-out: EGFR DTC Enzyme IC50
T1 construct: human EGFR (d746-750/T790M/C797S) (668-end, SignalChem); purchased SignalChem
T1 sequence (P00533 with tags, fused parts or gaps DEL746-750/T790M/C797S): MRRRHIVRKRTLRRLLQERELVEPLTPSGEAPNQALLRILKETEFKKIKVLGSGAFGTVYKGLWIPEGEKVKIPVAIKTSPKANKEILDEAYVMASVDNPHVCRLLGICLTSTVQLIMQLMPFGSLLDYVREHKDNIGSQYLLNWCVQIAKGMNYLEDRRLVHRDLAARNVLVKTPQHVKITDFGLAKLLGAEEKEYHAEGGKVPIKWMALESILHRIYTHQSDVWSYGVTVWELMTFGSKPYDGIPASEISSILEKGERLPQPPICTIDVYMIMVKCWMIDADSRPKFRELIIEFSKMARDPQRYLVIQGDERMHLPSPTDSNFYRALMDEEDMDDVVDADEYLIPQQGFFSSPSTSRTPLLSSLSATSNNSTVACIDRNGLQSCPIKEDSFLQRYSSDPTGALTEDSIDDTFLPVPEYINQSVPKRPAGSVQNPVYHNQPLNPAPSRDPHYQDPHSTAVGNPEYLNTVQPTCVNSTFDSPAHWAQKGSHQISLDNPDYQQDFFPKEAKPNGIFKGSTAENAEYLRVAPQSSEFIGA
Summary of the method: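 Kinase construct 668-end (3 ng) was incubated with 5 μM ATP and 0.2 μg substrate in Tris pH 7.4 buffer for 1 h at 25° C. ADP-Glo luminescence was read over 12 final compound concentrations from 10 μM down to 0. IC50 was taken as 50% inhibition relative to the solvent control.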

[2] = system: Ba/F3 expressing EGFR Del19/T790M/C797S mutations; assay: Inhibitory activity on proliferation of Ba/F3 cell overexpressing EGFR C797S (Cell Titer-Glo); assay type: cell-based; settings: Mus musculus, BaF3; 72 hours treatment, cell growth rate vs control; read-out: Ba/F3 (EGFR DTC) GI50
Summary of the method: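 Ba/F3 cells with EGFR Del19/T790M/C797S in RPMI-1640 + 10% FBS were seeded (3000/well) 24 h before 72 h compound exposure at 37 °C. Compounds were tested in a 12-point 3-fold series, final […]–5 μM. CellTiter-Glo luminescence gave growth % versus control, from which GI50 was derived.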

Row | IC50 [1] | GI50 [2] | Compound
1 | < 50 nM | < 500 nM | C[C@H]1CCOc2c(cnn2C)-c2nccc(n2)Nc2cc(c(C(=O)NC3CCCC(C(F)(F)F)C3)cn2)N1 (stereo partly drawn) [Example 119, (6S)-1^1,6-dimethyl-N-(3-(trifluoroemthyl)cy-clohexyl)-1^1H-9-oxa-3,5-diaza-2(2,4)-pyrimidina-4(2,4)-pyridina-1(4,5)-pyrazolacyclo-nonaphane-4^5-carboxamide]
2 | < 50 nM | 500 to 5000 nM | C[C@H]1CCOc2c(cnn2C)-c2nccc(n2)Nc2cc(c(C(=O)NC(CCN(C)C)c3ccccc3)cn2)N1 (stereo partly drawn) [Example 120, (6S)-N-(3-(dimethylamino)-1-phenylpropyl)-1^1,6-dimethyl-1^1H-9-oxa-3,5-diaza-2(2,4)-pyrimidina-4(2,4)-pyridina-1(4,5)-pyrazolacyclo-nonaphane-4^5-carboxamide]
